Assay results from patent US11155560B2, “Substituted pyrazolo[1,5-a]pyrimidines for modulating CDK9 activity” (Kronos Bio, Inc., priority 2018, dated 2021).

Target: CDK9/cyclin T1 (Homo sapiens, UniProt P50750)
Assay: CDK9/cyclin T1 kinase inhibition, LANCE assay
Format: biochemical
Conditions: reaction time 60 minutes, 10 μM ATP, 10-dose IC50, compounds 35-126 (127-208 listed, method not stated), read-out: CDK9/cyclin T1 Potency Grade
Protocol: Exemplary compounds of the invention (35-126) were tested for inhibition of CDK9/cyclin T1 kinase. Using a LANCE assay (reaction time 60 minutes), the compounds were tested in 10-dose IC50 duplicate mode with a 3-fold serial dilution starting at 4.3 μM. […] Reactions were carried out at 10 μM ATP. Data was normalized to positive and negative controls and curve fits were analyzed with XLFIT5 as % inhibition vs. log [compound concentration] using a 4-parameter logistic model205. Fit=(A+((B−A)/(1+((C/x)^D)))); Res =(y-fit).

Sequence of CDK9/cyclin T1 (P50750 whole entry): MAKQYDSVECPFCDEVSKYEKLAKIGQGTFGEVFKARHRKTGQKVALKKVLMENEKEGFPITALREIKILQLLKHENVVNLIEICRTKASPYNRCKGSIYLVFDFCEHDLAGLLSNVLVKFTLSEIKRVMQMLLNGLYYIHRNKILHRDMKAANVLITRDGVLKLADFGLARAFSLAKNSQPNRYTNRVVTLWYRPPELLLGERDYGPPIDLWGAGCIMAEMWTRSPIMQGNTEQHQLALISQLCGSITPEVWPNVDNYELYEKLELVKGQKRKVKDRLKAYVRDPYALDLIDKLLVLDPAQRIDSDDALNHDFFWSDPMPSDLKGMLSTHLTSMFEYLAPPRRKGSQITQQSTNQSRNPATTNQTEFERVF
Sequence of CDK9/cyclin T1 (O60563 whole entry partner): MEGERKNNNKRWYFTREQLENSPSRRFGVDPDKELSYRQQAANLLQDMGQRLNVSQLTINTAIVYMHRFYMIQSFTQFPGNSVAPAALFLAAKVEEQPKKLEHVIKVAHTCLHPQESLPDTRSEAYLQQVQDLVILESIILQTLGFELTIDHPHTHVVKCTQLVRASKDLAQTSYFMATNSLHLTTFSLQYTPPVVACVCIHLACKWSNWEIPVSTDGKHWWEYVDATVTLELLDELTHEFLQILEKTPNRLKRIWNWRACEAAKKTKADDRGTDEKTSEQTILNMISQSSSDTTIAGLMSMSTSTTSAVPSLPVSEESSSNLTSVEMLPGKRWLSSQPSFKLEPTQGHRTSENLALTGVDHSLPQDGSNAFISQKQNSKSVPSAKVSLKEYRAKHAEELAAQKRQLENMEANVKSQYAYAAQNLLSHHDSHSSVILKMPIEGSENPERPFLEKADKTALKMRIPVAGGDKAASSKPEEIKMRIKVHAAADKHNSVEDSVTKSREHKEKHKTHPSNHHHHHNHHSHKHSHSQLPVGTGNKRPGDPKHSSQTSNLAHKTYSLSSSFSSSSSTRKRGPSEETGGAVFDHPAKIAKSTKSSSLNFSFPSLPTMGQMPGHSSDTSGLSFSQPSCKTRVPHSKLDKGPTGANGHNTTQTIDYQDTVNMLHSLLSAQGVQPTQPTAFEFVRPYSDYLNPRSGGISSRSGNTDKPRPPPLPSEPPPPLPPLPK

Row | Structure (SMILES) | IC50 [nM]
1 | N[C@@H]1CC[C@@H](Nc2cc(C3CC3)nc3ccnn23)C1 [Compound 43] | 1 to 500
2 | CC(C)OC(=O)N[C@@H]1CC[C@@H](Nc2cc(C(C)C)nc3c(Cl)cnn23)C1 [Compound 68] | 501 to 1000
3 | COc1cc(N[C@@H]2CC[C@@H](N)C2)n2nccc2n1 [Compound 77] | 501 to 1000
4 | O=C(N[C@H]1CC[C@H](Nc2cc(C3CC3)nc3ccnn23)C1)OCc1ccccc1 [Compound 84] | > 1000
5 | COCCNc1cc(N[C@H]2CC[C@H](N)C2)n2nccc2n1 [Compound 88] | 501 to 1000
6 | COC(=O)N[C@H]1CC[C@H](Nc2cc(C3CC3)nc3ccnn23)C1 [Compound 89] | > 1000
7 | CCOc1cc(N[C@H]2CC[C@H](N)C2)n2nccc2n1 [Compound 91] | 501 to 1000
8 | CN1CCN(c2cc(N[C@H]3CC[C@H](N)C3)n3nccc3n2)CC1 [Compound 99] | > 1000
9 | Cc1ncc(-c2cc(N[C@H]3CC[C@H](N)C3)n3nccc3n2)cn1 [Compound 103] | 501 to 1000
10 | CC(C)c1ccc(-c2cc(N[C@H]3CC[C@H](N)C3)n3nccc3n2)cc1 [Compound 108] | 1 to 500
11 | N[C@H]1CC[C@H](Nc2cc(C3=CCCCC3)nc3ccnn23)C1 [Compound 109] | 1 to 500
12 | N[C@H]1CC[C@H](Nc2cc(C3=CCOCC3)nc3ccnn23)C1 [Compound 110] | 501 to 1000
13 | N[C@H]1CC[C@H](Nc2cc(-c3cccc(F)c3)nc3ccnn23)C1 [Compound 111] | 1 to 500
14 | N[C@H]1CC[C@H](Nc2cc(C3=CCCOC3)nc3ccnn23)C1 [Compound 112] | 1 to 500
15 | CC(C)(C#N)c1ccc(-c2cc(N[C@H]3CC[C@H](N)C3)n3nccc3n2)cc1 [Compound 113] | 1 to 500
16 | N[C@H]1CC[C@H](Nc2cc(-c3ccc(C4CC4)cc3)nc3ccnn23)C1 [Compound 114] | 1 to 500
17 | N[C@H]1CC[C@H](Nc2cc(C3CCCCC3)nc3ccnn23)C1 [Compound 115] | 1 to 500
18 | Cn1ccc(-c2cc(N[C@H]3CC[C@H](N)C3)n3nccc3n2)n1 [Compound 116] | 1 to 500
19 | CC1(C)CC1c1cc(N[C@H]2CC[C@H](N)C2)n2nccc2n1 (stereo partly drawn) [Compound 117] | 1 to 500
20 | N[C@H]1CC[C@H](Nc2cc(C#Cc3ccccc3)nc3ccnn23)C1 [Compound 118] | 1 to 500
21 | N[C@H]1CC[C@H](Nc2cc(C#CC3CCCCC3)nc3ccnn23)C1 [Compound 119] | 1 to 500
22 | N[C@H]1CC[C@H](Nc2cc(C#CC3CC3)nc3ccnn23)C1 [Compound 120] | 1 to 500
23 | CC(C)c1cccc(-c2cc(N[C@H]3CC[C@H](N)C3)n3nccc3n2)c1 [Compound 121] | 1 to 500
24 | CC1CCC(c2cc(N[C@H]3CC[C@H](N)C3)n3nccc3n2)CC1 (stereo partly drawn) [Compound 122] | 1 to 500
25 | CC1(c2cc(N[C@H]3CC[C@H](N)C3)n3nccc3n2)CC1 [Compound 123] | 1 to 500
26 | N[C@H]1CC[C@H](Nc2cc(C3CCOC3)nc3ccnn23)C1 (stereo partly drawn) [Compound 124] | 501 to 1000
27 | N[C@H]1CC[C@H](Nc2cc(C3CCC(F)(F)CC3)nc3ccnn23)C1 [Compound 125] | 1 to 500

Row | Structure (SMILES) | IC50 [nM]
28 | N[C@H]1CC[C@H](Nc2cc(C3=CCOC3)nc3ccnn23)C1 [Compound 126] | 501 to 1000
29 | CC(=O)Nc1cc(N[C@@H]2CC[C@@H](N)C2)n2ncc(Cl)c2n1 [Compound 127] | 1 to 500
30 | CC(=O)Nc1cc(N[C@@H]2CC[C@@H](N)C2)n2nccc2n1 [Compound 128] | > 1000
31 | N[C@@H]1CC[C@@H](Nc2cc(C3CCC3)nc3ccnn23)C1 [Compound 133] | 1 to 500
32 | N[C@@H]1CC[C@@H](Nc2cc(C3CC3)nc3ccnn23)C1 [Compound 134] | 1 to 500
33 | CC(C)c1cc(N[C@@H]2CCN(C)C2)n2nccc2n1 [Compound 135] | > 1000
34 | CC(C)c1cc(N[C@@H]2CC[C@@H](NC=O)C2)n2nccc2n1 [Compound 137] | 1 to 500
35 | CCc1cc(N[C@H]2CC[C@H](N)C2)n2nccc2n1 [Compound 138] | 1 to 500
36 | CC(C)OC(=O)N[C@@H]1CC[C@@H](Nc2cc(C(C)C)nc3ccnn23)C1 [Compound 140] | 1 to 500
37 | CC(C)c1cc(N[C@@H]2CC[C@@H](NC(=O)OCc3ccccc3)C2)n2nccc2n1 [Compound 141] | 1 to 500
38 | O=CN[C@@H]1CC[C@@H](Nc2cc(C3CC3)nc3ccnn23)C1 [Compound 142] | 1 to 500
39 | CCC(C)c1cc(N[C@@H]2CC[C@@H](NC=O)C2)n2nccc2n1 (stereo partly drawn) [Compound 143] | 1 to 500
40 | COC(=O)N[C@@H]1CC[C@@H](Nc2cc(C(C)C)nc3ccnn23)C1 [Compound 145] | 1 to 500
41 | CC(C)c1cc(N[C@@H]2CC[C@@H](N(C)C=O)C2)n2nccc2n1 [Compound 146] | 1 to 500
42 | CCC(CC)c1cc(N[C@H]2CC[C@H](NC(=O)c3cnc(C)cn3)C2)n2nccc2n1 [Compound 148] | 1 to 500
43 | CCC(CC)c1cc(N[C@H]2CC[C@H](Nc3ccccn3)C2)n2nccc2n1 [Compound 149] | 1 to 500
44 | COCCN[C@@H]1CC[C@@H](Nc2cc(C(C)C)nc3ccnn23)C1 [Compound 150] | 1 to 500
45 | CC(C)c1cc(N[C@@H]2CC[C@@H](N(O)C(N)=O)C2)n2nccc2n1 [Compound 151] | 1 to 500
46 | N[C@H]1CC[C@H](Nc2cc(-c3ccc4c(c3)OCO4)nc3ccnn23)C1 [Compound 152] | 1 to 500
47 | CCC(CC)c1cc(N[C@H]2CC[C@H](N(C)CCOC)C2)n2nccc2n1 [Compound 153] | 1 to 500
48 | CN/C(=N/C#N)N[C@@H]1CC[C@@H](Nc2cc(C(C)C)nc3ccnn23)C1 [Compound 154] | 1 to 500
49 | CC(C)c1cc(N[C@H]2CC[C@H](N)C2)n2ncc(C#N)c2n1 [Compound 155] | 1 to 500
50 | N[C@H]1CC[C@H](Nc2cc(N3CCCCC3)nc3ccnn23)C1 [Compound 156] | 1 to 500
51 | CC(C)c1cc(N[C@@H]2CC[C@@H](NC(=N)N)C2)n2nccc2n1 [Compound 157] | 1 to 500
52 | CC(C)c1cc(N[C@@H]2CC[C@@H](NC(=O)OCc3ccccc3)C2)n2ncc(Cl)c2n1 [Compound 158] | 1 to 500
53 | CC(C)OC(=O)N[C@@H]1CC[C@@H](Nc2cc(C(C)C)nc3c(Cl)cnn23)C1 [Compound 159] | 501 to 1000

Second part, the compound after the results:

Row | IC50 [nM] | Structure (SMILES)
54 | 1 to 500 | N[C@@H]1CC[C@@H](Nc2cc(C3CCC3)nc3ccnn23)C1 [Compound 42]
55 | 1 to 500 | CC(C)c1cc(N[C@@H]2CC[C@@H](NC=O)C2)n2nccc2n1 [Compound 46]
56 | 1 to 500 | CCc1cc(N[C@H]2CC[C@H](N)C2)n2nccc2n1 [Compound 47]
57 | 1 to 500 | CC(C)c1cc(N[C@@H]2CC[C@@H](NC(=O)OCc3ccccc3)C2)n2nccc2n1 [Compound 50]
58 | 1 to 500 | O=CN[C@@H]1CC[C@@H](Nc2cc(C3CC3)nc3ccnn23)C1 [Compound 51]
59 | 1 to 500 | CCC(C)c1cc(N[C@@H]2CC[C@@H](NC=O)C2)n2nccc2n1 (stereo partly drawn) [Compound 52]
60 | 1 to 500 | CCC(CC)c1cc(N[C@H]2CC[C@H](NC(=O)c3cnc(C)cn3)C2)n2nccc2n1 [Compound 57]
61 | 1 to 500 | COCCN[C@@H]1CC[C@@H](Nc2cc(C(C)C)nc3ccnn23)C1 [Compound 59]
62 | 1 to 500 | CC(C)c1cc(N[C@@H]2CC[C@@H](N(O)C(N)=O)C2)n2nccc2n1 [Compound 60]
63 | 1 to 500 | CCC(CC)c1cc(N[C@H]2CC[C@H](N(C)CCOC)C2)n2nccc2n1 [Compound 62]
64 | 1 to 500 | CN/C(=N/C#N)N[C@@H]1CC[C@@H](Nc2cc(C(C)C)nc3ccnn23)C1 [Compound 63]
65 | 1 to 500 | CC(C)c1cc(N[C@H]2CC[C@H](N)C2)n2ncc(C#N)c2n1 [Compound 64]
66 | 1 to 500 | CC(C)c1cc(N[C@@H]2CC[C@@H](NC(=O)OCc3ccccc3)C2)n2ncc(Cl)c2n1 [Compound 67]
67 | 1 to 500 | COc1cc(C)cc(-c2cc(N[C@H]3CC[C@H](N)C3)n3nccc3n2)c1 [Compound 70]
68 | 1 to 500 | N[C@H]1CC[C@H](Nc2cc(Nc3ccc4ccccc4c3)nc3ccnn23)C1 [Compound 71]
69 | 1 to 500 | N[C@H]1CC[C@H](Nc2cc(-c3cccc(Cl)c3)nc3ccnn23)C1 [Compound 75]

Row | IC50 [nM] | Structure (SMILES)
70 | 1 to 500 | CC(C)Cc1cc(N[C@H]2CC[C@H](N)C2)n2ncc(Cl)c2n1 [Compound 76]
71 | 1 to 500 | CCN(CC)c1cc(N[C@H]2CC[C@H](N)C2)n2nccc2n1 [Compound 79]
72 | 1 to 500 | N[C@H]1CC[C@H](Nc2cc(Nc3cccc4ccccc34)nc3ccnn23)C1 [Compound 80]
73 | 1 to 500 | Cc1cnn2c(N[C@@H]3CC[C@@H](NC(=O)OC(C)C)C3)cc(C(C)C)nc12 [Compound 85]
74 | 1 to 500 | CC(C)N(C)c1cc(N[C@H]2CC[C@H](N)C2)n2nccc2n1 [Compound 86]
75 | 1 to 500 | Cc1cnn2c(N[C@@H]3CC[C@@H](NC(=O)OCc4ccccc4)C3)cc(C(C)C)nc12 [Compound 87]
76 | 1 to 500 | CN(CCO)c1cc(N[C@H]2CC[C@H](N)C2)n2nccc2n1 [Compound 90]
77 | 1 to 500 | CN(Cc1ccccc1)c1cc(N[C@H]2CC[C@H](N)C2)n2nccc2n1 [Compound 97]
78 | 1 to 500 | CCNc1cc(N[C@H]2CC[C@H](N)C2)n2nccc2n1 [Compound 98]
79 | 1 to 500 | Cc1cc(-c2cc(N[C@H]3CC[C@H](N)C3)n3nccc3n2)ccn1 [Compound 100]
80 | 1 to 500 | COc1cc(-c2cc(N[C@H]3CC[C@H](N)C3)n3nccc3n2)ccn1 [Compound 101]
81 | 1 to 500 | CN1CCN(c2cc(N[C@H]3CC[C@H](N)C3)n3nccc3n2)CC1=O [Compound 102]
82 | 1 to 500 | N[C@H]1CC[C@H](Nc2cc(-c3ccc4c(c3)OCO4)nc3c(Cl)cnn23)C1 [Compound 104]
83 | 1 to 500 | Cc1cc(C)cc(-c2cc(N[C@H]3CC[C@H](N)C3)n3nccc3n2)c1 [Compound 105]
84 | 1 to 500 | N[C@H]1CC[C@H](Nc2cc(-c3ccc(F)cc3)nc3ccnn23)C1 [Compound 107]
